Entries after “also recorded” stand apart in the source; their conditions may differ.
Legend:
[1] = test system: SREBP, HMG-CoA reductase, IPP isomerase (IPPI) and FPP synthase mRNA; test: Northern blot analysis of cholesterol/triglyceride biosynthesis and uptake gene mRNA in cultured human cells; format: cell-based; conditions: for expression of cholesterol biosynthetic enzymes (Northern analysis): HUVEC and HepG2 cells; for steady-state mRNA levels of IPPI / steady-state mRNA levels of IPPI (IPP isomerase): 4 hours; for steady-state mRNA levels of IPPI: 5 mM amino acid or 2 mM DTT; for steady-state mRNA levels of IPPI (IPP isomerase): homocysteine 5 mM, DTT, β-mercaptoethanol 5 mM, tunicamycin 10 μg/ml, A23187 10 μM; for IPPI mRNA levels: 0-18 hours
Method: (§1) Cell culture and treatment conditions. Primary human umbilical vein endothelial cells (HUVEC) were isolated by collagenase treatment of human umbilical veins (Jaffe, E. A, 1973) and cultured in EC medium (M199 medium, 20 μg/ml endothelial cell growth factor, 90 μg/ml porcine intestinal heparin, 100 μg/ml penicillin and 100 μg/ml streptomycin) containing 20% fetal bovine serum (Hyclone; Logan, Utah) in a humidified incubator at 37° C. with 5% CO2. Cells from passages 2-4 were used in these studies. Human aortic smooth muscle cells (HASMC) were purchased from Cascade Biologicals (Portland, Oreg.) and cultured in M231 media (Cascade Biologicals) containing smooth muscle cell growth supplement (Cascade Biologicals). The human hepatocarcinoma cell line, HepG2, was obtained from the American Type Culture Collection (ATCC; Rockville, Md.) and cultured in A-DMEM containing 10% fetal bovine serum. DL-homocysteine, L-methionine, DL-cysteine, glycine, DL-dithiothreitol ([…]), tunicamycin, A23187 and β-mercaptoethanol were purchased from Sigma (St. Louis, Mo.). These compounds were prepared fresh in culture medium, sterilized by filtration and added to the cell cultures.
(§2) Preparation of Total RNA. […] .

[2] = test system: GRP78/BiP and GADD153 mRNA; test: Northern blot analysis of ER stress response genes in HepG2 cells; format: cell-based, human; conditions: 4 h, 5 mM amino acids, 2.5 mM DTT, 10 μg/ml tunicamycin
Method: as §1, §2

[3] = test system: cultured cells; conditions: cited from earlier work; for overall cell number or viability: extracellular concentrations up to 5 mM
[4] = test system: HepG2 cells; test: Intracellular total cholesterol in HepG2 cells; format: cell-based, human; conditions: HepG2, 0-5 mM, 24-48 h
Method: (§3) Lipids are extracted with hexane:isopropanol (3:2), dried and resuspended in hexane. Colorimetric cholesterol assays is carried out using the Sigma Diagnostics Cholesterol Reagent (Sigma) to determine total cholesterol levels. Total plasma cholesterol are measured using the same assay but without the lipid extraction step.
as §1
(§4) Total cholesterol and triglyceride levels.

[5] = test system: HASMC; test: Intracellular total cholesterol in HASMC; format: cell-based, human; conditions: 0-5 mM, 24-48 h
Method: as §3, §1, §4

[6] = test system: HepG2 cells; test: BODIPY FL LDL binding and uptake in HepG2 cells; format: cell-based, human; conditions: 5 mM homocysteine 8 hr
Method: as §1
(§5) Uptake of BODIPY FL LDL and image analysis. […] Images were subsequently captured and analyzed using Northern Exposure image analysis/archival software (Mississauga, ON).

[7] = test system: GRP78/BiP and GRP94; test: Immunoblot with anti-KDEL mAb in HepG2 cells; format: cell-based, human; conditions: HepG2, 5 mM homocysteine, 8, 18 and 36 h
Method: as §1
(§6) Immunoblot analysis. The anti-KDEL mAb (SPA-827), which recognizes both GRP78/BiP and GRP94, was purchased from StressGen Biotechnologies (Victoria, BC). […]

[8] = test system: HUVEC; test: Intracellular total cholesterol in HUVEC; format: cell-based, human; conditions: 0-5 mM, 24-48 h
Method: as §3
as §1, with “These compounds were prepared fresh in culture medium, sterilized by filtration and added to the cell cultures.” left out

[9] = test system: HASMC; test: BODIPY FL LDL binding and uptake in HASMC; format: cell-based, human
Method: as §1, §5

[10] = test system: SREBP-2; test: Immunoblot of SREBP-2 forms in HepG2 cells; format: cell-based, human; conditions: HepG2 cells (data not shown)
Method: as §1, §6

[11] = test system: SREBP-1; test: Immunoblot of SREBP-1 precursor and mature forms in HepG2 cells; format: cell-based, human; conditions: 5 mM homocysteine
Method: as §1, §6

[12] = test system: HUVEC; test: BODIPY FL LDL / AcLDL binding and uptake in HUVEC; format: cell-based, human
Method: as §1, §5

[13] = HepG2 cells, 5 mM homocysteine, 0-18 h

O[C@H](CS)[C@H](O)CS (racemic) [DTT, DL-dithiothreitol]
expression of cholesterol biosynthetic enzymes (Northern analysis) [1]: induce the cholesterol biosynthetic pathway in a manner similar to that of homocysteine
steady-state mRNA levels of IPPI ([1]; HUVEC): significantly increased IPPI mRNA levels
steady-state mRNA levels of IPPI (IPP isomerase) ([1]; HepG2 cells): induced the expression of IPP isomerase; also recorded: increase IPPI mRNA levels
steady-state mRNA levels of GRP78/BiP and GADD153 [2]: also induced the steady-state mRNA levels of GRP78/BiP and GADD153

NC(CS)C(=O)O (racemic) [cysteine, DL-cysteine]
expression of cholesterol biosynthetic enzymes (Northern analysis) [1]: no other amino acids, including thiol-containing methionine and cysteine, have significant effects
steady-state mRNA levels of IPPI ([1]; HUVEC): only homocysteine and DTT significantly increased IPPI mRNA levels
steady-state mRNA levels of GRP78/BiP and GADD153 [2]: failed to induce the expression of these ER stress response genes
overall cell number or viability [3]: does not effect cell viability
total cellular cholesterol normalized to protein [4]: but not cysteine, increased cellular cholesterol
total cellular cholesterol normalized to protein [5]: but not cysteine, increased cellular cholesterol

NC(CCS)C(=O)O (racemic) [homocysteine, DL-homocysteine]
LDL binding/uptake [6]: may further enhance LDL binding; also recorded: enhanced LDL uptake
GRP78/BiP and GRP94 protein levels [7]: elevated
total cellular cholesterol normalized to protein [8]: no significant change in the total cholesterol concentration; also recorded: unchanged
IPPI mRNA levels ([1]; HASMC, 5 mM homocysteine): significantly increases IPPI mRNA levels
IPPI mRNA levels ([1]; HUVEC, 5 mM homocysteine): significantly increases IPPI mRNA levels
expression of cholesterol biosynthetic pathway genes, clusterin and SREBP ([1]; HUVEC, 1-5 mM homocysteine for as little as 2 hours): enhanced
steady-state mRNA levels of IPPI ([1]; HUVEC): significantly increased IPPI mRNA levels
IPPI mRNA levels ([1]; HepG2, 5 mM homocysteine): significantly increases IPPI mRNA levels
steady-state mRNA levels of SREBP, HMG-CoA reductase and FPP synthase ([1]; HepG2 cells, 5 mM homocysteine, 0, 2, 4, 8 or 18 hours): increased steady-state mRNA levels for all transcripts
steady-state mRNA levels of HMG-CoA reductase, IPP isomerase and FPP synthase [1, 13]: increased and peaked between 2 and 4 hr
steady-state mRNA levels of SREBP-1 [1, 13]: increased and peaked between 2 and 4 h
steady-state mRNA levels of IPPI (IPP isomerase) ([1]; HepG2 cells): induced the expression of IPP isomerase; also recorded: increase IPPI mRNA levels
mRNA levels of acetyl CoA carboxylase, fatty acid synthase and LDL receptor ([1]; homocysteine treated HepG2 cells (data not shown)): also increased
LDL uptake ([9]; 5 mM homocysteine 8 hr): maintained their ability to endocytose LDL
ability to bind LDL ([9]; after 18 h of incubation): no impairment
steady-state mRNA levels of GRP78/BiP and GADD153 [2]: increased steady-state mRNA levels of GRP78/BiP and GADD153
overall cell number or viability [3]: no effect on overall cell number or viability; also recorded: does not effect cell viability
EC injury ([3]; homocysteine concentrations up to 5 mM): do not cause EC injury
total cellular cholesterol normalized to protein [4]: promotes cholesterol accumulation
total cellular cholesterol normalized to protein ([4]; listed as Homocysteine): increased cellular cholesterol
active and precursor forms of SREBP-2 [10]: also increased
levels of active (68 kDa) and precursor (125 kDa) forms of SREBP-1 [11]: increased levels of both active (68 kDa) and precursor (125 kDa) forms of SREBP-1
total cellular cholesterol normalized to protein [5]: promotes cholesterol accumulation
total cellular cholesterol normalized to protein ([5]; listed as Homocysteine): increased cellular cholesterol
LDL or AcLDL binding ([12]; 4 hour pre-treatment with 5 mM homocysteine): no significant effect
LDL and AcLDL binding/uptake ([12]; 8 h incubation with 5 mM homocysteine): significant decrease in LDL and AcLDL binding; also recorded: significant decrease in LDL uptake; also recorded: similarly down-regulated

CNc1ccc2oc(C[C@H]3O[C@@]4(CC[C@H]3C)O[C@H]([C@H](C)C(=O)c3ccc[nH]3)[C@H](C)C[C@H]4C)nc2c1C(=O)O [A23187]
expression of cholesterol biosynthetic enzymes (Northern analysis) [1]: induce the cholesterol biosynthetic pathway in a manner similar to that of homocysteine
steady-state mRNA levels of IPPI (IPP isomerase) ([1]; HepG2 cells): induced the expression of IPP isomerase; also recorded: increase IPPI mRNA levels

C[C@@H]1C[C@@H]([C@H](O)CC2CC(=O)NC(=O)C2)C(=O)[C@@H](C)C1 [cycloheximide]
effect on induction of cholesterol/triglyceride genes by homocysteine ([1]; data not shown): does not block the induction of these genes by homocysteine

NCC(=O)O [glycine]
steady-state mRNA levels of IPPI ([1]; HUVEC): only homocysteine and DTT significantly increased IPPI mRNA levels
steady-state mRNA levels of GRP78/BiP and GADD153 [2]: failed to induce the expression of these ER stress response genes

N[C@@H](CCO)C(=O)O [homoserine]
steady-state mRNA levels of IPPI ([1]; HUVEC): only homocysteine and DTT significantly increased IPPI mRNA levels
steady-state mRNA levels of GRP78/BiP and GADD153 [2]: failed to induce the expression of these ER stress response genes

CSCC[C@H](N)C(=O)O [methionine, L-methionine]
expression of cholesterol biosynthetic enzymes (Northern analysis) [1]: no other amino acids, including thiol-containing methionine and cysteine, have significant effects
steady-state mRNA levels of IPPI ([1]; HUVEC): only homocysteine and DTT significantly increased IPPI mRNA levels
steady-state mRNA levels of GRP78/BiP and GADD153 [2]: failed to induce the expression of these ER stress response genes

OCCS [β-mercaptoethanol]
steady-state mRNA levels of IPPI (IPP isomerase) ([1]; HepG2 cells): induced the expression of IPP isomerase; also recorded: increase IPPI mRNA levels

tunicamycin
expression of cholesterol biosynthetic enzymes (Northern analysis) [1]: induce the cholesterol biosynthetic pathway in a manner similar to that of homocysteine
steady-state mRNA levels of IPPI (IPP isomerase) ([1]; HepG2 cells): induced the expression of IPP isomerase; also recorded: increase IPPI mRNA levels
steady-state mRNA levels of GRP78/BiP and GADD153 [2]: also induced the steady-state mRNA levels of GRP78/BiP and GADD153

— patent US20080039383A1, “Methods and compositions for inhibiting ER-stress induced cholesterol/triglyceride accumulation” (HAMILTON CIVIC HOSPITAL RESEARCH DEVELOPMENT INC., priority 1999, published 2008)
